The values below come from patent US20260055083A1, “APOL1 INHIBITORS AND METHODS OF USE” (Maze Therapeutics, Inc., priority 2022, published 2026).

Test [1] addresses T1, APOL1 G2 (Homo sapiens, UniProt O14791, DEL388-389).
T1 construct: expressed in transfected cells; host or cells: HEK293/T-REx APOL1 G2 clone #2, doxycycline-inducible
T1 sequence (O14791 with tags, fused parts or gaps DEL388-389): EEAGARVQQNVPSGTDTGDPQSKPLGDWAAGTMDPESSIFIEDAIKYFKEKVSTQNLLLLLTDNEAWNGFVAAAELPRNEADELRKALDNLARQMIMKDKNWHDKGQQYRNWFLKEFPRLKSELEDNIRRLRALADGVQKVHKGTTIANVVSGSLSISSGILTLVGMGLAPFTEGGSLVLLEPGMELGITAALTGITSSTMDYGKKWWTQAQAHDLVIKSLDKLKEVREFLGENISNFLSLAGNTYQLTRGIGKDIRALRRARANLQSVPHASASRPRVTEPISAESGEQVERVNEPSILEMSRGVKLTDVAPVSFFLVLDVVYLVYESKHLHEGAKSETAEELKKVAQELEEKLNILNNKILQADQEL
In words: APOL1 G2 FLIPR calcium influx assay (HEK T-REx/GCaMP6f/APOL1 G2 K6.3 cells). It counts as cell-based. The note with it: HEK293 clone expressing GCaMP6f, doxycycline-induced APOL1 G2; prevention of calcium influx; geometric mean of at least 2 assay runs. In short, it runs like this: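 Cells express GCaMP6f stably and APOL1 G2 after a 6 h doxycycline induction. Duplicate 8-point dilutions sit 10 min at room temperature in Ca2+-free Tyrode's (pH 7.4), then Ca2+ is injected to 5 mM final and the FLIPR signal recorded. AC50s are geometric means across ≥2 days.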

For test [2], the target named is T1, APOL1 G2. In words: APOL1 G2 HEK293 rescue of cell death caused by overexpression of APOL1 (CellTiter-Glo). It counts as cell-based. As to conditions: HEK293/T-REx APOL1 G2 clone #2, doxycycline induction, 17 hours, CellTiter-Glo luminescence; reversal of cell death; geometric mean of at least 2 assay runs. The essentials: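 Viability read by CellTiter-Glo luminescence after 17 h, 37 °C, in HEK293/T-REx cells expressing APOL1 G2 on 6 ng/mL doxycycline, 5,000 cells/well. Compounds tested as duplicate 8-point, 3-fold dilutions, 0.5% DMSO final; four-parameter logistic EC50, usually geometric mean of ≥2 days.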

Regarding `C[C@@H]1C[C@H](COc2ccc(S(=O)(=O)CCS(C)(=O)=O)cc2)CN1C1CCc2c(C#N)cc(Cl)cc2C1` (single isomer, unassigned) [Compound 47, (6S or 6R)-3-chloro-6-[(2R,4S)-4-{[4-(2-methanesulfonylethanesulfonyl)phenoxy]methyl}-2-methylpyrrolidin-1-yl]-5,6,7,8-tetrahydronaphthalene-1-carbonitrile], the AC50 at APOL1 G2 [1] came to 926 nM. Also, on APOL1 G2 [2], the EC50 is greater than 3340 nM.
As to `C[C@@H]1C[C@H](COc2ccc(S(C)(=O)=O)cc2)CN1CC(CO)c1cc(Cl)cc(C#N)c1` (single isomer, unassigned) [Compound 129, 3-chloro-5-[(2R or 2S)-1-hydroxy-3-[(2R,4S)-4-[(4-methanesulfonylphenoxy)methyl]-2-methylpyrrolidin-1-yl]propan-2-yl]benzonitrile], the AC50 on APOL1 G2 [1] was 4250 nM. For the same compound, at APOL1 G2 [2], the EC50 came out at 2140 nM.
Consider `C[C@@H]1C[C@H](COc2ccc(S(C)(=O)=O)nc2)CN1CCc1cc(C#N)cc(C#N)c1` [Compound 39, 5-{2-[(2R,4S)-4-{[(6-methanesulfonylpyridin-3-yl)oxy]methyl}-2-methylpyrrolidin-1-yl]ethyl}benzene-1,3-dicarbonitrile], for which, at APOL1 G2 [1], the concentration at half-maximal activity (AC50) stood at 554 nM. Further, the EC50 at APOL1 G2 [2] was determined as 121 nM.
Turning to `CS(=O)(=O)C1(c2ccc(OC[C@@H]3CN(CCc4cccc(Cl)c4)CCN3)cc2)COC1` [Compound 107, (3S)-1-[2-(3-chlorophenyl)ethyl]-3-{[4-(3-methanesulfonyloxetan-3-yl)phenoxy]methyl}piperazine], at APOL1 G2 [1], the AC50 was less than 86.6 nM. The EC50 on APOL1 G2 [2] came out at 245 nM.
In the case of `C[C@@H]1CN(CC(CO)c2cc(Cl)cc(C#N)c2)C[C@H]1COc1ccc(S(C)(=O)=O)cc1` (single isomer, unassigned) [Compound 128, 3-chloro-5-[(2S or 2R)-1-hydroxy-3-[(3S,4S)-3-[(4-methanesulfonylphenoxy)methyl]-4-methylpyrrolidin-1-yl]propan-2-yl]benzonitrile], the concentration at half-maximal activity (AC50) at APOL1 G2 [1] was found to be 1510 nM. The EC50 at APOL1 G2 [2] was determined as 711 nM.
In the case of `CC(Cc1cc(Cl)cc(C#N)c1)N1C[C@@H](COc2ccc(S(C)(=O)=O)cc2)[C@H](C)C1` (single isomer, unassigned) [Compound 19, 3-chloro-5-[(2R or 2S)-2-[(3S,4S)-3-[(4-methanesulfonylphenoxy)methyl]-4-methylpyrrolidin-1-yl]propyl]benzonitrile], at APOL1 G2 [1], the AC50 was determined as 444 nM. The half-maximal effective concentration (EC50) on APOL1 G2 [2] is 640 nM.
For the compound `C[C@@H]1C[C@H](COc2ccc(S(=O)(=O)CCCS(C)(=O)=O)cc2)CN1C1CCc2c(C#N)cccc2C1` (stereo partly drawn) [Compound 40, 6-[(2R,4S)-4-{[4-(3-methanesulfonylpropanesulfonyl)phenoxy]methyl}-2-methylpyrrolidin-1-yl]-5,6,7,8-tetrahydronaphthalene-1-carbonitrile], the concentration at half-maximal activity (AC50) on APOL1 G2 [1] was determined as 534 nM. The EC50 at APOL1 G2 [2] was 74.6 nM.
`C[C@@H]1C[C@H](COc2ccc(S(=O)(=O)CCS(C)(=O)=O)cc2)CN1C1CCc2c(C#N)cc(Cl)cc2C1` (stereo partly drawn) [Compound 46, 3-chloro-6-[(2R,4S)-4-{[4-(2-methanesulfonylethanesulfonyl)phenoxy]methyl}-2-methylpyrrolidin-1-yl]-5,6,7,8-tetrahydronaphthalene-1-carbonitrile]: the AC50 at APOL1 G2 [1] was 1610 nM. The EC50 on APOL1 G2 [2] came out at 418 nM.
On the same counts, the results for `CS(=O)(=O)c1ccc(OC[C@@H]2CN(CCc3cc(Cl)cc(C#N)c3)C[C@H]2CO)cc1` [Compound 24, 3-chloro-5-{2-[(3S,4S)-3-(hydroxymethyl)-4-[(4-methanesulfonylphenoxy)methyl]pyrrolidin-1-yl]ethyl}benzonitrile] are 310 nM and 410 nM.
With `C[C@@H]1CN(CCc2cc(Cl)cc(C#N)c2)C[C@H]1COc1ccc(C2(S(C)(=O)=O)CC2)cc1` [Compound 77, 3-chloro-5-{2-[(3S,4S)-3-{[4-(1-methanesulfonylcyclopropyl)phenoxy]methyl}-4-methylpyrrolidin-1-yl]ethyl}benzonitrile], the AC50 at APOL1 G2 [1] amounted to 189 nM. Further, at APOL1 G2 [2], the half-maximal effective concentration (EC50) stood at 176 nM.
Turning to `CS(=O)(=O)c1ccc(OC[C@@H]2CCCN(C3CCc4ccc(Cl)cc4C3)C2)cc1` (stereo partly drawn) [Compound 131, (3R)-1-(7-chloro-1,2,3,4-tetrahydronaphthalen-2-yl)-3-[(4-methanesulfonylphenoxy)methyl]piperidine], the AC50 on APOL1 G2 [1] is less than 229 nM. For the same compound, on APOL1 G2 [2], the EC50 came out at 994 nM.
`CS(=O)(=O)c1ccc(OC[C@@H]2CN(CCc3cccc(Cl)c3)C[C@H]2CO)cc1` [Compound 21, [(3S,4S)-1-[2-(3-chlorophenyl)ethyl]-4-[(4-methanesulfonylphenoxy)methyl]pyrrolidin-3-yl]methanol]: the AC50 on APOL1 G2 [1] stood at 138 nM. Besides, at APOL1 G2 [2], the EC50 worked out at 280 nM.
For the compound `CS(=O)(=O)c1ccc(OC[C@@H]2CN(CCc3cccc(C#N)c3)CCN2)cc1C(F)(F)F` [Compound 113, 3-{2-[(3S)-3-{[4-methanesulfonyl-3-(trifluoromethyl)phenoxy]methyl}piperazin-1-yl]ethyl}benzonitrile], the AC50 at APOL1 G2 [1] was found to be 634 nM. Also, the concentration giving a half-maximal response (EC50) on APOL1 G2 [2] is 726 nM.
Consider `C[C@@H]1C[C@H](COc2ccc(S(=O)(=O)CCS(C)(=O)=O)cc2)CN1C1CCc2ccc(C#N)cc2C1` (single isomer, unassigned) [Compound 31], for which the AC50 on APOL1 G2 [1] turned out to be 773 nM. The EC50 at APOL1 G2 [2] was 234 nM.
Consider `C[C@@H]1CN(CC(O)c2cccc(Cl)c2)C[C@H]1COc1ccc(S(C)(=O)=O)cc1` (single isomer, unassigned) [Compound 144, (1S) or (1R)-1-(3-chlorophenyl)-2-[trans-3-[(4-methanesulfonylphenoxy)methyl]-4-methylpyrrolidin-1-yl]ethan-1-ol], for which the AC50 at APOL1 G2 [1] is 265 nM. Further, the EC50 at APOL1 G2 [2] was 289 nM.
`CN=S(C)(=O)c1ccc(OC[C@@H]2CN(CCc3cccc(C#N)c3)C[C@H]2C)cn1` (stereo partly drawn) [Compound 71, 3-{2-[(3S,4S)-3-methyl-4-[({6-[methyl(methylimino)oxo-λ^6-sulfanyl]pyridin-3-yl}oxy)methyl]pyrrolidin-1-yl]ethyl}benzonitrile]: at APOL1 G2 [1], the AC50 is 492 nM. In addition, on APOL1 G2 [2], the EC50 is 287 nM.
For the compound `C[C@@H]1C[C@H](COc2ccc(S(=O)(=O)CCCS(C)(=O)=O)cc2)CN1C1CCc2ccc(C#N)cc2C1` (single isomer, unassigned) [Compound 35], the concentration at half-maximal activity (AC50) at APOL1 G2 [1] is 948 nM. Moreover, at APOL1 G2 [2], the EC50 came out at 256 nM.
Regarding `C[C@@H]1C[C@H](COc2ccc(S(=O)(=O)CCO)cc2)CN1C1CCc2ccc(Cl)cc2C1` (single isomer, unassigned) [Compound 62, 2-(4-{[(3S,5R)-1-[(2R or 2S)-7-chloro-1,2,3,4-tetrahydronaphthalen-2-yl]-5-methylpyrrolidin-3-yl]methoxy}benzenesulfonyl)ethan-1-ol], the AC50 at APOL1 G2 [1] worked out at 462 nM. In addition, the EC50 at APOL1 G2 [2] is 201 nM.
`CC(c1ccc(OC[C@@H]2CN(CCc3cccc(Cl)c3)CCN2)cc1)S(C)(=O)=O` (single isomer, unassigned) [Compound 142, (3S)-1-[2-(3-chlorophenyl)ethyl]-3-({4-[(1S) or (1R)-1-methanesulfonylethyl]phenoxy}methyl)piperazine]: the AC50 on APOL1 G2 [1] stood at 703 nM. In addition, at APOL1 G2 [2], the concentration giving a half-maximal response (EC50) amounted to 231 nM.
As for `C[C@@H]1CN(CCc2cccc(C#N)c2)C[C@H]1COc1ccc(S(C)(=O)=NCCS(C)(=O)=O)cc1` (stereo partly drawn) [Compound 68, 3-{2-[(3S,4S)-3-[(4-{[(2-methanesulfonylethyl)imino](methyl)oxo-λ^6-sulfanyl}phenoxy)methyl]-4-methylpyrrolidin-1-yl]ethyl}benzonitrile], at APOL1 G2 [1], the AC50 worked out at 708 nM. Besides, the EC50 at APOL1 G2 [2] was found to be 366 nM.
In the case of `C[C@@H]1C[C@H](COc2ccc(S(=O)(=O)CCS(C)(=O)=O)cc2)CN1C1CCc2ccc(Cl)cc2C1` (single isomer, unassigned) [Compound 51, (2R,4S)-1-[(2R or 2S)-7-chloro-1,2,3,4-tetrahydronaphthalen-2-yl]-4-{[4-(2-methanesulfonylethanesulfonyl)phenoxy]methyl}-2-methylpyrrolidine], at APOL1 G2 [1], the AC50 is 439 nM. Moreover, the EC50 on APOL1 G2 [2] was 128 nM.

As usually defined, the AC50 is the midpoint of the concentration-response curve, whichever way the signal moves. As usually defined, the EC50 is the concentration that produces a half-maximal response.
